Results as given in PMC9019904, “AD Informer Set: Chemical tools to facilitate Alzheimer's disease drug discovery” (Alzheimer's & Dementia : Translational Research & Clinical …, 2022).

How the values were obtained:
[1] = tested on: HMC3 (human microglia) cell line; test: pHrodo-myelin phagocytosis/cell viability high content imaging assay: viability (cell count, nuclear area, nuclear intensity); conditions: 48 hours treatment
Procedure, shortened: (§1)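 Viability was read as total cell count per well by high-content imaging, with mean average nuclear intensity per cell profiling apoptosis (rise early, fall late). Compounds were given at 10 μM for 48 h, pHrodo-myelin being added for the final 20 h. Values are means of two points as % untreated control.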

[2] = tested on: BV2 (mouse microglia) cell line; test: as above; conditions: 48 hours treatment
Procedure, shortened: as §1

[3] = tested on: HMC3 (human microglia) cell line; test: pHrodo-myelin phagocytosis/cell viability high content imaging assay: phagocytosis signal; type: cell-based
Procedure, shortened: (§2)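 High content imaging, roughly 22 hours post pHrodo-myelin addition, recorded phagocytosis signal alongside viability in microglial lines BV2 (mouse) and HMC3 (human). Apoptosis tracked through intensity rise (early) and fall (later) among three extracted measurements.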

[4] = tested on: BV2 (mouse microglia) cell line; test: as above; type: cell-based
Procedure, shortened: as §2

[5] = HMC3, compound 10 uM, pHrodo-myelin
[6] = BV2, compound 10 uM, pHrodo-myelin
[7] = HMC3 cells, 10 uM compound, 48 hours treatment, pHrodo-myelin final 20 hours
[8] = BV2 cells, 10 uM compound, 48 hours treatment, pHrodo-myelin final 20 hours

Structure (SMILES)	1. Cell count (% control) ([1]; HMC3, compound 10 uM)	2. Nuclear Area (% Control) ([1]; HMC3, compound 10 uM)	3. Nuclear DNA Intensity (% control) ([1]; HMC3, compound 10 uM)	1. Cell count (% control) ([2]; BV2, compound 10 uM)	2. Nuclear Area (% Control) ([2]; BV2, compound 10 uM)	3. Nuclear DNA Intensity (% control) ([2]; BV2, compound 10 uM)	4. Phagocytosis (% control) [3, 5]	4. Phagocytosis (% control) [4, 6]	1. Cell count (% control) ([1]; HMC3 cells, 10 uM compound)	2. Nuclear Area (% Control) ([1]; HMC3 cells, 10 uM compound)	3. Nuclear DNA Intensity (% control) ([1]; HMC3 cells, 10 uM compound)	1. Cell count (% control) ([2]; BV2 cells, 10 uM compound)	2. Nuclear Area (% Control) ([2]; BV2 cells, 10 uM compound)	3. Nuclear DNA Intensity (% control) ([2]; BV2 cells, 10 uM compound)	4. Phagocytosis (% control) [3, 7]	4. Phagocytosis (% control) [4, 8]
Cc1cc(O)cc2c1[C@]1(C)CCC3C(C)(C)CCC[C@]3(C)[C@H]1C2 (stereo partly drawn) [UNC10302703A]	107.3 % control	104.4 % Control	94.7 % control	88.9 % control	108.7 % Control	100.3 % control	74.6 % control	179.0 % control	–	–	–	–	–	–	–	–
C[C@H](NC(=O)c1sccc1OCc1ccc(Cl)cc1)c1ccccc1 [UNC10302704A]	112.7 % control	95.6 % Control	89.7 % control	95.5 % control	101.0 % Control	97.2 % control	66.4 % control	123.4 % control	–	–	–	–	–	–	–	–
CCOC(=O)c1cccc(CNc2ccc(N(C)C(=O)Nc3ccccc3)cc2)c1 [UNC10302705A]	79.1 % control	96.2 % Control	114.6 % control	77.7 % control	107.2 % Control	109.9 % control	139.7 % control	194.2 % control	–	–	–	–	–	–	–	–
CCOC(=O)N1CCC(Nc2c(NCCN3CCN(c4cccc(C(F)(F)F)c4)CC3)c(=O)c2=O)CC1 [UNC10302706A]	111.8 % control	102.2 % Control	96.9 % control	117.8 % control	102.0 % Control	95.9 % control	75.0 % control	143.2 % control	–	–	–	–	–	–	–	–
CCCCCCOc1cc2c(cc1N(C)c1ncc(C(=O)O)cn1)C(C)(C)CCC2(C)C [UNC10302707A]	137.9 % control	106.3 % Control	90.2 % control	135.9 % control	104.8 % Control	101.8 % control	53.6 % control	161.8 % control	–	–	–	–	–	–	–	–
COc1nc(OCc2cccc(-c3ccccc3)c2C)ccc1CNCCNC(C)=O.Cl [UNC10302832A]	–	–	–	–	–	–	–	–	35.9 % control	69.0 % Control	171.8 % control	21.6 % control	92.8 % Control	35.4 % control	0.4 % control	0.00132 % control
CCN(CC)Cc1ccc(C(=O)N(CCc2ccccc2OC)[C@@H]2CCNC2)cc1.Cl.Cl [UNC10302833A]	–	–	–	–	–	–	–	–	76.9 % control	96.9 % Control	107.9 % control	70.3 % control	106.1 % Control	102.7 % control	38.5 % control	210.8 % control
C[C@H](CCCC(C)(C)O)[C@H]1CC[C@H]2[C@@H]3CC=C4C[C@@H](O)CC[C@]4(C)[C@H]3CC[C@]12C [UNC10302834A]	99.4 % control	81.6 % Control	144.3 % control	75.6 % control	103.0 % Control	136.7 % control	45.5 % control	50.2 % control	–	–	–	–	–	–	–	–
NCCCC[C@H](N[C@@H](CCc1ccccc1)C(=O)O)C(=O)N1CCC[C@H]1C(=O)O.O.O [UNC10302835A]	155.8 % control	99.6 % Control	95.8 % control	119.8 % control	103.4 % Control	99.2 % control	70.9 % control	121.2 % control	–	–	–	–	–	–	–	–
